The values below come from publication PMC10986598, “Investigating inhibitors of 1-deoxy-D-xylulose 5-phosphate synthase in a mouse model of UTI” (Microbiology Spectrum, 2024).

The nature of data set [1]: In vivo PK studies in CD-1 mice. The protocol: For pharmacokinetic analysis, both male (n = 2) and female (n = 2) CD1 mice were dosed with either BAP or pro-hpAP by intraperitoneal (IP) route or administration (100 mg/kg) and (30 mg/kg), respectively. Blood and tissue samples were collected at predetermined time points (0–6 h post-dose). Plasma was generated from blood by low-speed centrifugation (3,000 × g), and all samples were stored at −80°C until bioanalysis.
Non-compartmental-analysis module in WinNonlin was used to assess blood pharmacokinetic parameters including max concentrations (Cmax), time to Cmax (Tmax), area under the curve (AUC), area extrapolated to infinity (AUC0–∞), and terminal half-life (t1/2). In addition, the tissue penetration index was measured as the ratio of AUCtissue to AUCplasma.
To quantify BAP and pro-hpAP, methanol containing 0.5 µM losartan as an internal standard was added 5 µL/µL plasma or 5 µL/mg tissue in microcentrifuge tubes. Tissue was further homogenized using a Spex Geno/Grinder with stainless steel beads for 3 min at 1,500 RPM. Homogenates from untreated animals were spiked with the analytes from 100 to 0.01 nmol/g tissue by serial dilution to generate a standard curve. Plasma and tissue homogenates were then vortexed and centrifuged (16,000 × g for 5 min at 4°C) to precipitate proteins. Supernatants were transferred to a 96 well plate and 2 µL was injected on a Accela 1250 LC coupled to a Vantage triple quadrupole mass spectrometer (Thermo Fisher Scientific Inc., Waltham MA). Samples were separated on an Agilent EclipsePlus C18 RRHD (1.8 µm) 2.1 × 100 mm column with mobile phases consisting of water +0.1% formic acid (A), and acetonitrile + 0.1% formic acid (B). […] Samples were introduced to the source through heated ion spray with the capillary temperature setting at 350°C, spray voltage of 4 kV and S-Lens RF of 51. Nitrogen was used as the sheath and auxiliary gas with the settings of 50 and 1 arbitrary units, respectively. For BAP, the instrument was operated in negative ion mode scanning for transitions of 179.1 > 63.1, 79.1 (BAP) and 420.9 > 179.1, 127.0 (losartan) which were acquired with collision energies setting of 17; 55 and 25; 41 CE, respectively. For pro-hpAP, the instrument was operated in positive ion mode scanning for transitions of 346.2 to 86.1 and 143.2 (pro-hpAP) and 422.9 to 207.1 and 180.1 (losartan) which were acquired with collision energies setting of 29; 17 and 37; 22 CE, respectively. Peaks were quantified with Xcalibur software.

The subject of data set [2] is UPEC strain CFT073. The experiment in a line: In vivo ascending UTI assay (prophylaxis). Particulars: for median log reduction of bacterial burden vs PBS-treated cohort: bladder, 48 h. The arrangement: species or system Escherichia coli in C3H/HeN mice. On the procedure: Female mice were injected subcutaneously in the flank with 2.5 mg of MPA (150 mg/mL, diluted in sterile saline) 7 days prior to inoculation ([60]). Mice were dosed vaginally with 30 µL of sterile saline lavage fluid immediately prior to inoculation. The fluid was collected, placed on a slide, heat fixed, Gram stained, and assessed to determine the estrous cycle stage of each mouse as previously described ([61]).
Six-week-old female C3H/HeN mice were inoculated with UPEC as previously described ([28]). Briefly, UPEC strain CFT073 (ATCC designation: BAA-2503) was streaked on LB agar from a frozen glycerol stock and grown overnight at 37°C. Following overnight incubation, three to five colonies were picked and subcultured into 10 mL of sterile LB, and the culture was incubated statically overnight at 37°C. The culture was diluted 1:1,000 (25 µL of culture into 25 mL of sterile LB) and incubated statically for 24 h at 37°C to promote the growth of bacteria with type-1 pili expression. The resulting 25 mL inoculum was centrifuged at 4,200 × g for 20 min at 4°C. The supernatant was removed, and the cell pellet was resuspended in 10 mL of sterile PBS. The OD600 was adjusted to 1.0 by the addition of PBS to give a cell density of approximately 4 × 10^7 to 1 × 10^8 CFUs per 50 µL, the volume of the inoculum. Cell counts were validated by plating a dilution of the inoculum solution and enumerating following overnight incubation.
Urinary catheters were assembled by threading 30G needles with 0.28 mm inner diameter polyethylene tubing to create a soft tip. Catheter tips were dipped in lubricant immediately before inoculation. During catheterization, urine was aspirated from the bladder prior to inoculation with 50 µL of UPEC inoculum, prepared as described above. Mice were housed with their drug-dosed cohort and dosed intraperitoneally according to each experiment’s dosing regimen as shown in the figures. Dosing regimen for BAP trial 1 (Fig. 7b)consisted of IP administration of BAP (300 mg/kg) 30 min before inoculation; dosing regimen for BAP trial 2 (Fig. 7c) consisted of IP administration of BAP (600 mg/kg) 30 min before inoculation followed with IP doses of BAP (300 mg/kg) at 1 and 3 hpi; dosing regimen for BAP trial 3 and the pro-hpAP trial (Fig. 7d) consisted of IP administration of BAP (600 mg/kg) or pro-hpAP (60 mg/kg) 30 min before inoculation followed with IP doses of BAP (300 mg/kg) or pro-hpAP (30 mg/kg) at 1, 3, and 24 hpi; dosing regimen 4 (Fig. S3) consisted of IP administration of BAP (600 mg/kg) 30 min before inoculation followed with IP doses of BAP (300 mg/kg) at 1, 3, 6, 10, 22, 26, and 30 hpi. Gentamicin diluted in sterile PBS was used as a positive control and was administered to mice at 10 mg/kg IP 30 min prior to inoculation in all experiments.
After 48 h, mice were anesthetized by isoflurane inhalation and sacrificed by cervical dislocation. Bladders were harvested, added to 1 mL sterile PBS, and homogenized with a hand-held homogenizer in a biosafety cabinet. Tissue homogenates were serially-diluted (five 10-fold dilutions), and 100 µL of each dilution was plated onto LB plates and enumerated after a 24 h incubation at 37°C, yielding an effective detection range of 1 × 10^2–150 × 10^8 CFU/mL. In a few cases, bacterial counts fell below the lower limit of detection or above the upper limit of detection and are reported as 0 CFU/mL or conservatively 200 × 10^8 CFU/mL, respectively.

For data set [3], the system named is E. coli. Particulars: cited from earlier work.
Setting [4] is: Bladder, single 100 mg/kg IP dose of BAP.
Where [5] appears, read: Brain, single 100 mg/kg IP dose of BAP.
Setting [6] is: Kidney, single 100 mg/kg IP dose of BAP.
Where [7] appears, read: Plasma, single 100 mg/kg IP dose of BAP.

Entries after “also recorded” stand apart in the source; their conditions may differ. Like-named read-outs stand apart in the source and are kept apart here.

Regarding `CCCCOP(=O)(O)C(C)=O` [BAP, butyl acetylphosphonate], the AUC(0-t) in data set [1] (setting [4]) amounted to 1990 ± 110 µM·h; in data set [1] (setting [5]), 12.5 ± 1.8 µM·h; in data set [1] (setting [6]), 136 ± 7 µM·h; in data set [1] (setting [7]), 233 ± 27 µM·h. Further, the Cmax in data set [1] (setting [4]) turned out to be 1840 ± 230 µM; in data set [1] (setting [5]) it was 16.2 ± 2.6 µM; in data set [1] (setting [6]), 298 ± 37 µM; in data set [1] (setting [7]), 650 ± 190 µM. In addition, the Tmax in data set [1] (setting [4]), in data set [1] (setting [6]) and in data set [1] (setting [7]) was 4.8 min in each case. The AUC in data set [1] (bladder, BAP 100 mg/kg IP) is 1,990 ± 110 nmol h/g; in data set [1] (brain, BAP 100 mg/kg IP) it was 12.5 ± 1.8 nmol·h/g; in data set [1] (kidney, BAP 100 mg/kg IP) it was 136 ± 7 nmol·h/g; in data set [1] (plasma, BAP 100 mg/kg IP), 233 ± 27 nmol·h/mL. Moreover, the “protection against UTI” value in data set [2] (BAP single 300 mg/kg IP dose 30 min prior to inoculation, 300 mg/kg) is recorded as “not adequate to provide protection against UPEC infection; also recorded: provides no protection against UTI”. Moreover, the “median log reduction of bacterial burden vs PBS-treated cohort” value is given as “no reduction” in data set [2] (BAP trial 1: 300 mg/kg IP 30 min before inoculation (1 dose)); 1.05 log in data set [2] (BAP trial 2: 600 mg/kg IP 30 min before inoculation, 300 mg/kg at 1 and 3 hpi (3 doses)); 1.14 log in data set [2] (BAP trial 3: 600 mg/kg IP 30 min before inoculation, 300 mg/kg at 1, 3 and 24 hpi (4 doses)). In addition, in data set [2] (regimen 4: BAP 600 mg/kg IP 30 min before inoculation, 300 mg/kg at 1, 3, 6, 10, 22, 26 and 30 hpi), the “log reduction of bacterial burden vs PBS control” value amounted to 1.32 log. Moreover, the MICs entry in data set [3] (under nutrient limitation) is “low micromolar range”.
On to `C#CCCOP(=O)(O)C(=C)NC(=O)C(CC(C)C)NC(=O)CN` (stereo not drawn) [pro-hpAP], for which the AUC was found to be 6.2 ± 1.3 nmol·h/g in data set [1] (bladder, pro-hpAP 30 mg/kg IP, analyte = labelled substance (pro-hpAP or released hpAP)); 3.2 ± 0.21 nmol·h/mL in data set [1] (both sexes, CD1, mouse, plasma, pro-hpAP 30 mg/kg IP, analyte = labelled substance, read-out: AUC); 0.115 ± 0.014 nmol·h/g in data set [1] (brain, pro-hpAP 30 mg/kg IP, analyte = labelled substance); 0.516 ± 0.048 nmol·h/g in data set [1] (kidney, pro-hpAP 30 mg/kg IP, analyte = labelled substance). Further, the Cmax in data set [1] (both sexes, CD1, mouse, Bladder, single 30 mg/kg IP dose of pro-hpAP, analyte = labelled substance) was found to be 24.3 ± 8.5 µM; in data set [1] (both sexes, CD1, mouse, Brain, single 30 mg/kg IP dose of pro-hpAP, analyte = labelled substance), 0.134 ± 0.036 µM; in data set [1] (both sexes, CD1, mouse, Kidney, single 30 mg/kg IP dose of pro-hpAP, analyte = labelled substance), 0.715 ± 0.09 µM; in data set [1] (both sexes, CD1, mouse, Plasma, single 30 mg/kg IP dose of pro-hpAP, analyte = labelled substance (pro-hpAP or released hpAP)), 20.2 ± 1.9 µM. Moreover, the AUC(0-t) in data set [1] (both sexes, CD1, mouse, Bladder, single 30 mg/kg IP dose of pro-hpAP, analyte = labelled substance, read-out: AUC0-t) was 6.2 ± 1.3 µM·h; in data set [1] (both sexes, CD1, mouse, Brain, single 30 mg/kg IP dose of pro-hpAP, analyte = labelled substance, read-out: AUC0-t), 0.115 ± 0.014 µM·h; in data set [1] (both sexes, CD1, mouse, Kidney, single 30 mg/kg IP dose of pro-hpAP, analyte = labelled substance, read-out: AUC0-t) it was 0.516 ± 0.048 µM·h; in data set [1] (both sexes, CD1, mouse, Plasma, single 30 mg/kg IP dose of pro-hpAP, analyte = labelled substance, read-out: AUC0-t) it was 3.2 ± 0.21 µM·h. The time of peak concentration (Tmax) in data set [1] (both sexes, CD1, mouse, Bladder, single 30 mg/kg IP dose of pro-hpAP, analyte = labelled substance, read-out: Tmax) was 4.8 min; in data set [1] (both sexes, CD1, mouse, Brain, single 30 mg/kg IP dose of pro-hpAP, analyte = labelled substance, read-out: Tmax), 4.8 min; in data set [1] (both sexes, CD1, mouse, Kidney, single 30 mg/kg IP dose of pro-hpAP, analyte = labelled substance, read-out: Tmax), 4.8 min; in data set [1] (both sexes, CD1, mouse, Plasma, single 30 mg/kg IP dose of pro-hpAP, analyte = labelled substance, read-out: Tmax) it was 4.8 min. The “median log reduction of bacterial burden vs PBS-treated cohort” value in data set [2] (pro-hpAP 60 mg/kg IP 30 min before inoculation, 30 mg/kg at 1, 3 and 24 hpi (4 doses)) turned out to be 1.42 log. Further, the MIC in data set [3] (standard nutrient limitation conditions) is recorded as ~ 20 nM.

As usually defined, the Cmax is the peak of the concentration-time curve. What is called Tmax is the time from dosing to the highest level.
